This note sets out measurements from ChEMBL document CHEMBL1133456, “Synthesis and anticonvulsant activity of novel and potent 6,7-methylenedioxyphthalazin-1(2H)-ones” (J Med Chem, 2000).

By ED50 is commonly meant the dose at which the effect has come halfway, by size or by number of responders. The low end stands for an effect at a small dose, the high end for a need for a large dose. A word on the TD50: it is the 50% point of the dose-response relation for the toxic effect studied. Higher therefore signals lower toxicity.

Data set [1] in a line: Ratio between TD50 and ED50 from the clonic phase of audiogenic seizures in mice. Conditions: mouse, in vivo; read-out: Protective index. In kind it is ADME, organism-based.
Data set [2] in a line: Anticonvulsant activity against audiogenic seizures in DBA/2 mice expressed as ED50 values in tonic phase; Values ranges from: 16.1-31.5. In kind it is functional. Conditions: Mus musculus.
A short description of data set [3]: Toxic dose in DBA/2 mice; Values ranges from: 59.6-132. In kind it is toxicity. Conditions: DBA/2, mouse, in vivo.
The nature of data set [4]: Relative lipophilicity expressed as Rm value. In kind it is physicochemical. Conditions: octanol/water.
Data set [5] can be described thus: Anticonvulsant activity against audiogenic seizures in DBA/2 mice expressed as ED50 values in clonic phase; Values ranges from: 22.0-35.1. In kind it is functional. Conditions: Mus musculus.
Data set [6] is described as follows: Ratio between TD50 and ED50 from the clonic phase of audiogenic seizures. In kind it is ADME. Conditions: read-out: Protective index.
Data set [7] is described as follows: Toxic dose in DBA/2 mice. Conditions: DBA/2, mouse, in vivo. In kind it is toxicity.
The nature of data set [8]: Anticonvulsant activity against audiogenic seizures in DBA/2 mice expressed as ED50 values in clonic phase. In kind it is functional. Conditions: Mus musculus.
Data set [9] can be described thus: Anticonvulsant activity against audiogenic seizures in DBA/2 mice expressed as ED50 values in tonic phase. Conditions: Mus musculus. In kind it is functional.
Data set [10] in a line: Toxic dose in DBA/2 mice; Values ranges from: 72.4-135. In kind it is toxicity. Conditions: DBA/2, mouse, in vivo.
A short description of data set [11]: Toxic dose in DBA/2 mice; Values ranges from: 36.1-82.9. In kind it is toxicity. Conditions: DBA/2, mouse, in vivo.
The nature of data set [12]: Anticonvulsant activity against audiogenic seizures in DBA/2 mice expressed as ED50 values in tonic phases; Values ranges from: 4.02-19.9. In kind it is functional. Conditions: Mus musculus.
Data set [13] can be described thus: Anticonvulsant activity against audiogenic seizures in DBA/2 mice expressed as ED50 values in clonic phase; Values ranges from: 6.52-35.4. In kind it is functional. Conditions: Mus musculus.
A short description of data set [14]: Anticonvulsant activity against audiogenic seizures in DBA/2 mice expressed as ED50 values in tonic phase; Values ranges from: 19.4-50.6. In kind it is functional. Conditions: Mus musculus.
Data set [15] is described as follows: Anticonvulsant activity against audiogenic seizures in DBA/2 mice expressed as ED50 values in clonic phase; Values ranges from: 24.4-55.1. In kind it is functional. Conditions: Mus musculus.
The nature of data set [16]: Toxic dose in DBA/2 mice; Values ranges from: 74.8-169. In kind it is toxicity. Conditions: DBA/2, mouse, in vivo.

As for `Sc1nnc(-c2ccccc2)c2cc3c(cc12)OCO3`, in data set [1], the selectivity ratio came to 3.2. Moreover, the ED50 in data set [2] worked out at 22.5 µmol/kg; in [5], 27.8 µmol/kg. In addition, in [3], the TD50 is 89 µmol/kg. In data set [4], this compound had a Rm of 0.05.

For the compound `CCCNC(=O)n1nc(-c2ccc(N)cc2)c2cc3c(cc2c1=O)OCO3`, the selectivity ratio in data set [6] stood at 3.3. This compound also came in with a TD50 in data set [7] of 52.8 µmol/kg. Moreover, the Rm in [4] is listed as -0.126. Further, the ED50 in [8] worked out at 15.8 µmol/kg; in data set [9] it was 6.82 µmol/kg.

As to `Nc1ccc(C2=NNC(=O)Cc3cc4c(cc32)OCO4)cc1`, in data set [1], the selectivity ratio is 4.5. The compound further had a TD50 in data set [10] of 99.1 µmol/kg. Also, the Rm in data set [4] is -0.43.

For `CCCCCNC(=O)n1nc(-c2ccc(N)cc2)c2cc3c(cc2c1=O)OCO3`, in data set [6], the selectivity ratio came to 4.3. In data set [7], this compound came in with a TD50 of 56.6 µmol/kg. Besides, in data set [4], the Rm stood at 0.101. Further, the ED50 in [8] was 13.2 µmol/kg; in data set [9], 5.34 µmol/kg.

Consider `CCCCNC(=O)n1nc(-c2cccc(N)c2)c2cc3c(cc2c1=O)OCO3`, for which the selectivity ratio in [6] turned out to be 3.2. The same compound had a TD50 in data set [7] of 101 µmol/kg. In addition, the Rm in [4] was 0.01. The ED50 in data set [8] was found to be 31.6 µmol/kg; in data set [9] it was 22.4 µmol/kg.

Turning to `Nc1ccc(-c2nnc(S)c3cc4c(cc23)OCO4)cc1`, in data set [1], the selectivity ratio was determined as 3.6. In addition, in data set [11], the TD50 turned out to be 54.7 µmol/kg. Further, the ED50 in data set [12] came out at 8.94 µmol/kg; in data set [13] it was 15.2 µmol/kg. Moreover, in data set [4], the Rm is listed as -0.205.

For `CNC(=O)n1nc(-c2ccc(N)cc2)c2cc3c(cc2c1=O)OCO3`, in [6], the selectivity ratio was 2.5. Further, the TD50 in data set [7] is 59.4 µmol/kg. The compound further yielded a Rm in data set [4] of -0.364. The results for the ED50 in [8] and in data set [9] were 23.4 µmol/kg and 16.8 µmol/kg, respectively.

Consider `Oc1nnc(-c2ccccc2)c2cc3c(cc12)OCO3`, for which, in data set [1], the selectivity ratio is 3.1. Moreover, the ED50 in data set [14] stood at 31.3 µmol/kg; in data set [15] it was 36.7 µmol/kg. In addition, the Rm in data set [4] is given as -0.158. Moreover, the TD50 in data set [16] came to 112 µmol/kg.
